# Test results published in patent publication US5468756A, “Imidazonaphthyridine derivatives” (Kyowa Hakko Kogyo Co., Ltd., priority 1990, dated 1995).
# Key:
# [1] = system: passive Schultz-Dale reaction; assay: Effect on passive Schultz-Dale reaction (broncho-dilative activity), sensitized tracheal strips contracted by antigen; design: species or system male Hartley guinea pigs; details: guinea pig tracheal zig-zag strips, 37° C., antigen egg white albumin 1 μg/ml; read-out: Passive Schultz-Dale reaction IC50 (concentration of 50% relaxation rate)
# Method: d) Effect on passive Schultz-Dale reaction (broncho-dilative activity)
# Male Hartley guinea pigs weighing 350 to 500 g were passively sensitized by intraperitoneal injection of rabbit anti-OA serum prepared in advance by the method of Koda et al. [Folia Pharmacol., Japon 66, 237, (1970)]. After 24 hours, the guinea pigs were stunned and exsanguinated, and then tracheae were removed. The zig-zag strips of the tracheae were prepared by the method of Emmerson and Mackay [J. Pharm. Pharmacol., 31, 798, (1979)]. The strips were suspended in Krebs-Henseleit solution at 37° C. under aeration of a mixed gas of 95% oxygen and 5% carbon dioxide, and equilibrated for one hour. Then, antigen (egg white albumin) was introduced in the solution (final concentration; 1 μg/ml), and the contraction was measured by isotonictransducer (TD-112s, made by Nihon Kohden K.K., Japan) and recorded on a recorder (Type 3066, made by Yokogawa-Hokushin Denki, K.K. Japan). After the contraction curves reached a plateau, the test compounds were successively added in order to get cumulative concentration-relaxation curves. The concentration of 50% relaxation rate (IC50) was calculated from the regression line, which was obtained from the cumulative concentration-relaxation curves.
# [2] = system: carrageenin-induced paw edema; assay: Effect on carrageenin-induced paw edema; type: in vivo, male Wistar rats; details: Rattus norvegicus, 3 hours after carrageenin, read-out: Suppression rate for paw swelling, carrageenin-induced edema; for inhibition in vivo at 100 mg/kg: p.o.; for inhibition in vivo at 50 mg/kg: po, 50 mg/kg P.O.
# Method: a) Effect on carrageenin-induced paw edema
# (§1) Male Wistar rats weighing 150 to 160 g (n=3-5) were used in the experiment. After the right hind paw volume was measured with the plethysmograph (TK-101; Unicom Co., Ltd.), the test compound (25, 50 or 100 mg/kg) was orally administered. After one hour, 0.1 ml of 1% carrageenin (λ-carrageenin; PICNIN-A®, Zushi Kagaku Co., Ltd.) was subcutaneously injected into the right hind paw footpad. Three hours after the injection of carrageenin, the right hind paw volume was measured and the swelling rate was determined by the following equation 1. [formula] Vt: the right hind paw volume measured 3 hours after the injection of carrageenin
# (§2) Vo: the right hind paw volume measured prior to the injection of carrageenin
# (§3) The suppression rate was calculated by the following equation 2. [formula] Swt: the swelling rate of the group administered with the test compound Swc: the swelling rate of the control group administered with physiological saline solution
# ddY strain male mice = assay: Acute toxicity (Minimum Lethal Dose); type: in vivo
# Method: The test compound was orally and intraperitoneally administered to ddY strain male mice weighing 20 to 25 g. MLD (Minimum Lethal Dose) was determined by observing the mortality for […] after the administration.
# [3] = system: zymosan-induced paw edema; assay: Effect on zymosan-induced paw edema; type: in vivo, male Wistar rats; details: Rattus norvegicus, po, read-out: Suppression rate for paw swelling, zymosan-induced edema; for inhibition in vivo at 25 mg/kg: 25 mg/kg P.O.
# Method: as §1, §2, §3
# b) Effect on zymosan-induced paw edema
# The experiment was carried out in the same manner as in the carrageenin-induced paw edema test except that 1% zymosan (Zymosan A®; Sigma Chemical Co.) was used in place of 1% carrageenin and the right hind paw volume was measured […] the injection of the edema-inducing substance instead of 3 hours. The swelling rate and the suppression rate were calculated by equation 1 and equation 2, respectively.
# [4] = system: platelet activating factor (PAF)-induced mortality; assay: Inhibition effect on platelet activating factor (PAF)-induced mortality; type: in vivo, male dd mice; details: Mus musculus, po, PAF 40 μg/kg i.v., 3 h, read-out: Survival rate of test compound-administered group; for responders at 100 mg/kg: n = 10, control group survival 0-20%
# Method: e) Inhibition effect on platelet activating factor (PAF)-induced mortality
# The experiment was carried out by a minor modification of a known method [Br. J. Pharmacol., 79, 595 (1983)]. Groups each consisting of 10 male dd mice (weighing 28 to 32 g) were used, and 50 or 100 mg/kg of the test compound or a saline (control) was orally administered. One hour after the administration of test compound, 40 μg/kg of PAF (manufactured by Avanti Polar Lipids Co., Ltd.) was intravenously administered. Three hours after PAF injection, the mortality of the animals was observed.
Compound,IC50 [1],inhibition in vivo at 100 mg/kg [2],MLD (Minimum Lethal Dose) i.p. (ddY strain male mice),MLD (Minimum Lethal Dose) p.o. (ddY strain male mice),inhibition in vivo at 25 mg/kg [3],responders at 100 mg/kg [4],inhibition in vivo at 50 mg/kg [2],inhibition in vivo at 100 mg/kg [3],"responders at 50 mg/kg ([4]; 50 mg/kg p.o., n = 10, control group survival 0%)"
"CCOCCn1cnc2c3cccnc3n(-c3ccccc3)c(=O)c21 [Compound 31, 3-(Ethoxyethyl)-5-phenyl-3H-imidazo[4,5-c][1,8]naphthyridin-4(5H)-one]",0.13 µM,60.6%,> 100 mg/kg,> 300 mg/kg,57.4%,90%,,,
"C=CCn1cnc2c3cccnc3n(-c3ccccc3)c(=O)c21 [Compound 33, 3-(2-propenyl)-5-phenyl-3H-imidazo[4,5-c][1,8]naphthyridin-4(5H)-one]",0.0071 µM,,> 100 mg/kg,> 300 mg/kg,67.3%,100%,67.8%,,
"CC(=O)OCCn1cnc2c3cccnc3n(-c3ccccc3)c(=O)c21 [Compound 34, 3-(2-Acetoxyethyl)-5-phenyl-3H-imidazo[4,5-c][1,8]naphthyridin-4(5H)-one]",0.68 µM,,> 100 mg/kg,> 300 mg/kg,41.6%,70%,42.2%,,
"CCn1cnc2c3cccnc3n(-c3ccccc3)c(=O)c21 [Compound 8, 3-Ethyl-5-phenyl-3H-imidazo[4,5-c][1,8]naphthyridin-4(5H)-one]",0.45 µM,56.1%,> 50 mg/kg,> 50 mg/kg,,70%,,64.9%,
"CC(=O)Cn1cnc2c3cccnc3n(-c3ccccc3)c(=O)c21 [Compound 14, 3-(2-Oxopropyl)-5-phenyl-3H-imidazo[4,5-c][1,8]naphthyridin-4(5H)-one]",5.8 µM,44%,> 100 mg/kg,> 100 mg/kg,53.7%,100%,,,
"CCCn1cnc2c3cccnc3n(-c3ccccc3)c(=O)c21 [Compound 9, 5-Phenyl-3-n-propyl-3H-imidazo[4,5-c][1,8]naphthyridin-4(5H)-one]",6.5 µM,52.4%,> 100 mg/kg,> 100 mg/kg,61.2%,100%,,,
"O=c1c2c(ncn2Cc2ccc(F)cc2)c2cccnc2n1-c1ccccc1 [Compound 44, 3-(4-Fluorophenyl)methyl-5-phenyl-3H-imidazo[4,5-c][1,8]naphthyridin-4(5H)-one]",6.6 µM,42.8%,> 50 mg/kg,> 300 mg/kg,63.9%,50%,,,
"CC(C)n1cnc2c3cccnc3n(-c3ccccc3)c(=O)c21 [Compound 10, 3-Isopropyl-5-phenyl-3H-imidazo[4,5-c][1,8]naphthyridin-4(5H)-one]",6 µM,43.1%,> 100 mg/kg,> 100 mg/kg,,80%,,53%,
"O=c1c2c(ncn2CCc2ccccc2)c2cccnc2n1-c1ccccc1 [Compound 15, 3-Phenethyl-5-phenyl-3H-imidazo[4,5-c][1,8]naphthyridin-4(5H)-one]",8.1 µM,5.2%,> 100 mg/kg,> 300 mg/kg,25.7%,50%,,,
"CCCCn1c(=O)c2c(ncn2CCC)c2cccnc21 [Compound 29, 5-n-Butyl-3-n-propyl-3H-imidazo[4,5-c][1,8]naphthyridin-4(5H)-one]",0.29 µM,56.1%,> 100 mg/kg,> 100 mg/kg,21.1%,100%,,,
"CCCCn1c(=O)c2c(ncn2C)c2cccnc21 [Compound 28, 5-n-Butyl-3-methyl-3H-imidazo[4,5-c][1,8]naphthyridin-4(5H)-one]",4.5 µM,20.6%,,,26.7%,70%,,,
"COc1ccc(-n2c(=O)c3[nH]cnc3c3cccnc32)cc1 [Compound 22, 5-(4-Methoxy)phenyl-3H-imidazo[4,5-c][1,8]naphthyridin-4(5H)-one]",> 10 µM,1.9%,,,,30%,,0%,
"CCCCn1cnc2c3cccnc3n(-c3ccccc3)c(=O)c21 [Compound 11, 3-n-Butyl-5-phenyl-3H-imidazo[4,5-c][1,8]naphthyridin-4(5H)-one]",> 10 µM,56.4%,> 100 mg/kg,> 200 mg/kg,55.5%,100%,,,
"O=c1c2c(ncn2Cc2ccccc2)c2cccnc2n1-c1ccccc1 [Compound 13, 3-Benzyl-5-phenyl-3H-imidazo[4,5-c][1,8]naphthyridin-4(5H)-one]",1.3 µM,58.1%,> 100 mg/kg,> 300 mg/kg,,90%,,65.1%,
"O=c1c2c(ncn2CC2CCCCC2)c2cccnc2n1-c1ccccc1 [Compound 37, 3-Cyclohexylmethyl-5-phenyl-3H-imidazo[4,5-c][1,8]naphthyridin-4(5H)-one]",6.2 µM,,,,49.8%,90%,34.7%,,
"CC(C)Cn1cnc2c3cccnc3n(-c3ccccc3)c(=O)c21 [Compound 12, 3-Isobutyl-5-phenyl-3H-imidazo[4,5-c][1,8]naphthyridin-4(5H)-one]",8.5 µM,48.5%,> 50 mg/kg,> 200 mg/kg,69.7%,100%,,,
"Cc1cccc(Cn2cnc3c4cccnc4n(-c4ccccc4)c(=O)c32)c1 [Compound 41, 3-(3-Methylphenyl)methyl-5-phenyl-3H-imidazo[4,5-c][1,8]naphthyridin-4(5H)-one]",10 µM,47.7%,,,33.3%,,,,80%
